The METLIN SMRT retention time set (Domingo-Almenara et al. 2019)

Test: gradient 5% acetonitrile 3 min, to 50% in 2 min, to 85% in 15 min, held 3 min, 100 µL/min
Conditions: column: Zorbax Extend-C18 2.1 x 50 mm; eluents: water / acetonitrile, 0.1% formic acid
Procedure, shortened: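 Data were gathered over 3 months by HPLC coupled to a quadrupole time-of-flight mass spectrometer, operated in positive and negative ionization mode. Mixtures of ~100 pure standards ran on a Zorbax Extend-C18 column (2.1 × 50 mm, 1.8 μm) at 100 μL/min, with water and acetonitrile each containing 0.1% formic acid and dead and dwell volumes of 40 μL and 900 μL. Retention time was read from adduct peaks picked by computer and checked manually.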

Compound	RP-LC retention time [s]
Cc1nn(C)c(C)c1S(=O)(=O)N1CCN(C(=O)CCc2c[nH]c3ccccc23)CC1	708
CC(C)(C)C(O)CCNC(=O)c1ccc(C(F)(F)F)cc1 (stereo not drawn)	813
Cc1ccn2cc(C(=O)N3CCN(c4ccccc4F)CC3)nc2c1	662
COc1cccc(NS(=O)(=O)c2ccc(-c3nnc(C4CCC4)o3)o2)c1	881
COc1cccc(CNC(=O)C2(C)CCCN(C(=O)Nc3cc(OC)cc(OC)c3)C2)c1 (stereo not drawn)	844
O=C(c1cc2ccccc2o1)N1CCN(C(=O)C2COc3ccccc3O2)CC1 (stereo not drawn)	829
CNS(=O)(=O)c1ccc(Cl)c(-c2nnc(-c3ccccc3)o2)c1	870
CC1(CNC(=O)c2ccccc2Br)CCOCC1	698
c1ccc(OCc2nc(-c3ccc(-c4csc(C5CC5)n4)cc3)no2)cc1	1330
CCCc1noc(-c2cccnc2N2CCCN(Cc3ccccc3)CC2)n1	690
CCCNC(=O)c1ccc2c(=O)n(Cc3ccc(C)cc3)c(N(CC)CC)nc2c1	1060
Cn1c(=O)c2nc(SCCC(=O)Nc3ccc(N4CCOCC4)cc3)n(C)c2n(C)c1=O	620
Cc1ccc(CNC(=O)C2CCCN(c3ncnc4c3nc3n4CCCCC3)C2)cc1 (stereo not drawn)	793
CC(=O)NCCn1c(SCC(=O)OCc2ccccc2)nc2ccccc2c1=O	767
CC1CCCN(CC2CCN(S(=O)(=O)Cc3ccccc3Cl)CC2)C1 (stereo not drawn)	662
O=C(c1cccc(N2C(=O)CCS2(=O)=O)c1)N1CCN(c2ccccn2)CC1	726
Cc1noc([C@@H]2CN(C(=O)c3ccoc3C)C[C@H]2CO)n1	610
COCCC1CCN(C(=O)COc2ccc(Cl)cc2)CC1	849
Cc1cc2[nH]c(C(=O)Nc3cccc(Cl)c3C)c(CN3CCOCC3)c2s1	748
CCOC(=O)Nc1nc2c(s1)CN(C(=O)Nc1ccc3c(c1)OCO3)CC2	670
CC(C)(C)c1csc(-c2csc(S(=O)(=O)NC3CCCCC3)c2)n1	1320

Compound	RP-LC retention time [s]
CCC1CN2C=NC(N3CCN(C(=O)Nc4cccc(F)c4C)CC3)=CC2=N1 (stereo not drawn)	671
O=S(=O)(c1ccc2c(c1)CCC2)N1CCCC1c1nc(-c2ccc(Cl)cc2)no1 (stereo not drawn)	1310
O=C(NCc1ccccc1)C12CC3CCC(CC(C3)C1)C2	1020
Cc1ccc(SCC(=O)N2CCN(c3ccccc3)CC2)cc1	942
O=C(CSc1nnc2ccc(-c3cccc([N+](=O)[O-])c3)nn12)c1cccs1	774
Cc1cc(N2CCOCC2)nc(N2CCN(C(=O)CCC3CCCCC3)CC2)n1	714
CCOC(=O)CN1C(=O)CC(C[C@@H](O)C2C[C@@H](C)C[C@H](C)C2=O)CC1=O (stereo partly drawn)	821
Cc1ccc(C)c(NC(=O)N2CCN(c3nc(C)cc(N(C)C)n3)CC2)c1	572
COC[C@@H]1CN(S(=O)(=O)c2ccc(F)cc2)C[C@H]1c1ccccn1	745
COc1cccc(-c2nc(-c3ccc4ncn(C(C)C)c4c3)no2)c1OC	766
NC(=O)[C@@H]1CCCN1C(=O)[C@H](Cc1ccccc1)NC(=O)[C@@H]1CCCN1C(=O)[C@@H](N)Cc1ccc(O)cc1	584
COc1cc(Cl)ccc1-c1nc(C2CC(=O)N(c3ccc(C)cc3)C2)no1 (stereo not drawn)	1070
O=C(c1ccc(OCC2CCN(C(=O)c3ccco3)CC2)cc1)N1CCOCC1	718
O=C(Cn1c(=O)oc2ccccc21)N1[C@H]2CC[C@@H]1c1cnc(-c3ccc(F)cc3)nc1C2	912
COc1ccc(C(CC(=O)N2CCN(C)CC2)N2Cc3ccccc3C2=O)cc1OC (stereo not drawn)	609
CN(C)CCNC(=O)C1CCN(c2nc3ccc(-c4ccsc4)nc3s2)CC1	645
O=c1c2ccccc2nc2n1CCCC2	653
COc1ccc(-c2nnc(COc3ccc(NC(=O)c4cccnc4SC)cc3)o2)cc1	893
O=C(NCc1csc(-c2ccccc2)n1)C1CCN(S(=O)(=O)c2ccc3c(c2)CCCC3)CC1	1100
O=C(NCc1nc2ccccc2n1CC(=O)N1CCCCCC1)c1ccco1	627
Cc1cccc(-c2nnc(-c3nc(NCCN4CCOCC4)c4ccccc4n3)o2)c1	662

Compound	RP-LC retention time [s]
CN1CCC(OC2CCN(C(=O)c3ccc(Br)o3)CC2)CC1	597
COC(=O)N1CCC(c2ccc(OC)cc2)C1 (stereo not drawn)	758
O=C(c1sc2cc(F)ccc2c1Cl)N1CCN(c2ccccn2)CC1	693
COC[C@@H]1CN(Cc2ccc(Cl)c(F)c2)C[C@H]1c1nc(C)no1	645
O=C(COc1ccccc1)N1CC(n2cc(COCC3CC3)nn2)C1	717
CCCCNC(=O)Cn1nc2c(N3CCSCC3)nccn2c1=O	728
CCn1cc(C)c(C(=O)O)c1CC(=O)NCCN1CCCc2ccccc21	711
COc1ccccc1NC(=O)N1CCN(c2cc(C)nc(N3CCCCC3)n2)CC1	695
CCn1cc(-c2nc(C(=O)Nc3ccc(OC)c(Cl)c3)cs2)c2cccnc21	1110
CCn1c(=O)c(C(=O)NC(C)C)nc2cc(C)c(C)cc21	803
COc1cc(NS(=O)(=O)c2cc(-c3nc(C)cs3)n(CC(=O)N3CCCC3)c2)cc(OC)c1	877
CCOc1ccc(Cn2c(=O)c3sccc3n(Cc3nc(-c4cccc(C)c4)no3)c2=O)cc1	1180
CC(NC(=O)Cc1cccn1-c1ccc(Cl)cc1)c1cccnc1 (stereo not drawn)	649
Cc1cc(S(=O)(=O)[C@H]2CS(=O)(=O)C[C@@H]2N2CCN(c3ccc(F)cc3)CC2)ccc1F	662
Cc1ccc(CN2CCCn3nc(C(=O)NCCN4CCCCC4)cc3C2=O)cc1	631
Cc1cc2nc(SCc3noc(CCC(=O)Nc4nc(-c5ccccc5)cs4)n3)[nH]c2cc1C	814
CCOC(=O)C1CCN(c2nnc(-c3nc(C4CC4)no3)c3ccccc23)CC1	953
CCn1cc2nc(SCc3cc(F)cc(F)c3)n(Cc3ccccc3F)c(=O)c2n1	1150
Cc1ccc(NC(=O)N2CCC(CCN)CC2)cc1	589

Now from value to compound:

RP-LC retention time [s]	Compound
777	COC(=O)c1ccc2c(=O)n(Cc3ccc(F)cc3)c(N3CCC(C(N)=O)CC3)nc2c1
713	COc1ccc(N(Cc2nnc3n2CCCCC3)C(=O)Nc2ccccc2)c(OC)c1
845	CC(C)NC(=O)c1ccc(OCC2CCN(C(=O)Cc3cccc(F)c3)CC2)cc1
919	Cc1ccc(CNC(=O)Cn2c(C)cc(-c3nnc(-c4ccc(F)cc4)o3)c2C)o1
974	COc1cccc(-c2noc(C3CCCN3C(=O)Nc3ccc(OC)c(Cl)c3)n2)c1 (stereo not drawn)
660	O=C(Cn1cnc(-c2cccs2)cc1=O)Nc1ccc(-n2cnnn2)cc1
970	CC(=O)c1ccc(NC(=O)CSc2ncc(-c3ccc(C)c(C)c3)o2)cc1
992	O=C(Cn1cccc(-c2nc(-c3ccc(Br)cc3)no2)c1=O)Nc1cccc(F)c1
863	Cc1cc(-c2nnc(-c3ccco3)o2)c(C)n1CC(=O)NCc1ccccc1Cl
642	O=C(NCc1ccccn1)c1cc(-c2cccnc2)nc2ccc(Cl)cc12
1030	Cc1ccccc1-c1noc(C2CCCN2C(=O)Nc2cccc(F)c2)n1 (stereo not drawn)
809	CCCN1C(=O)CN(S(=O)(=O)c2ccccc2)CC1(C)C(=O)NCc1ccccc1 (stereo not drawn)
924	CC1(C)CC(=O)C2=C(C1)Nc1ccccc1N(CC(=O)Nc1cccc(F)c1)C2c1ccco1 (stereo not drawn)
879	COc1ccc(-c2ccnc3nc(CCc4ccccc4)nn23)cc1OC
875	COCCN1C(=O)c2ccccc2C(C(=O)Nc2ccc3c(c2)OCO3)C1c1ccc(F)cc1 (stereo not drawn)
790	CC(=O)Nc1nc2ccc(CC(=O)Nc3cccc(Cl)c3)cc2s1
1140	Cc1ccc(F)cc1NC(=O)Cn1nc(N2CCCCCC2)c2ccccc2c1=O
805	CCOc1ccccc1CNC(=O)Cc1nnc(-c2cccc(F)c2)o1
728	CN(C)c1cccc(C(=O)NCC(=O)N2CCCc3ccccc32)c1
945	COc1ccc(Cn2nc3c(S(=O)(=O)N4CCc5ccccc5C4)cccn3c2=O)cc1F
877	C[C@H](CSC(=O)c1ccccc1)C(=O)N1c2ccccc2C[C@H]1C(=O)O
693	CCN(CC)S(=O)(=O)c1ccc2c(c1)N(CC(=O)NCCc1ccco1)C(=O)C1CCCCN21 (stereo not drawn)
808	Cc1cc(C)cc(NC(=O)N2CCC3(CC2)NC(=O)c2ccccc2N3C)c1
826	CC(Oc1ccc(=O)n(-c2ccc(F)cc2)n1)C(=O)Nc1ccccc1Cl (stereo not drawn)
1280	O=C(Nc1cc(F)ccc1F)c1cc2sccc2n1Cc1ccc(Cl)cc1
1010	Cc1cccc(-n2c(=O)c3sccc3n(Cc3nc(-c4ccccc4)no3)c2=O)c1
1020	Cc1ccc(NC(=O)Nc2ccc3c(c2)CCN3S(=O)(=O)c2ccccc2)cc1F
